Experiments:
HDAC3 = HDAC3 (Homo sapiens, UniProt O15379); test: Deacetylation activity selectivity, HDAC3; type: biochemical
Description: (§1) Based on the above results, 8a was further investigated in this study. […] To further evaluate the selectivity of 8a for SIRT6, we examined the effect of 8a on the deacetylation activity of other HDAC family members, including HDAC1-HDAC11, SIRT1-SIRT3 and SIRT5. […] Furthermore, to confirm binding of 8a to SIRT6 in cells, we carried out the cellular thermal shift assay (CETSA). The CETSA approach builds on the thermal shift assay concept where ligand binding to its target protein enhances the target protein stability. We observed that the thermal stability of SIRT6 increased after 8a treatment (Figs. 2c, d).

PANC-1 cells = test: MTT proliferation assay, PANC-1; type: cell-based; settings: 72 h
Method: (§2) BXPC-3 and PANC-1 cells were plated in 96-well plates at 5000 cells per well. After 12 h attachment, varying concentrations of 8a were added into the culture medium for 72 h. Then 10 μL MTT (5 mg/ml) solution was added into per well for 4 h at 37 °C. After removing medium, formazan crystals were dissolved in 150 µL DMSO. The cells viability was quantified by measuring the absorbance at 570 nm.

SIRT1 = SIRT1 (Homo sapiens, UniProt Q96EB6); test: Deacetylation activity selectivity, SIRT1; type: biochemical
Method: Fluor-De-Lys (FDL) assays were used for the examination of the deacetylation activities of sirtuins as described previously. For the detection of SIRT6 activity, the 50-μL reaction mixture contained 5 μM SIRT6, 2.5 mM NAD^+ (β-Nicotinamide adenine dinucleotide hydrate, Sigma, N1636), 75 μM RHKK-Ac-AMC (GL Biochem, Shanghai), compounds/DMSO, and assay buffer. The reactions were incubated at 37 °C for 2 h, added 50 μL stop solution (40 mM nicotinamide, 6 mg/mL trypsin) at 25 °C for 30 min. Fluorescence intensity was measured at an excitation wavelength of 360 nm and an emission wavelength of 460 nm. IC50 values were calculated in GraphPad Prism version 8.00.
as §1

HDAC11 = HDAC11 (Homo sapiens, UniProt Q96DB2); test: Deacetylation activity selectivity, HDAC11; type: biochemical
Description: as §1

[1] = tested on: H3K9 acetylation (SIRT6 substrate); test: H3K9 acetylation in Hela cells, western blot; type: cell-based
Method: Cells were harvested and lysed in a lysis buffer (solarbio, R0010) supplementing 1 mM PMSF and protease inhibitor (TargetMol, USA). […] Then, the membranes were detected by Tanon 5200 (Tanon, Beijing, China).
To investigate the SIRT6 activity at cellular levels, we examined the acetylation status of H3K9, which is a well-known SIRT6 substrate. […] As these compounds can show violet fluorescence, intracellular localizations of these compounds were evaluated by confocal microscopy.

BXPC-3 cells = test: MTT proliferation assay, BXPC-3; type: cell-based; settings: 72 h
Method: as §2

SIRT1, sequence (Q96EB6 whole entry, species assumed): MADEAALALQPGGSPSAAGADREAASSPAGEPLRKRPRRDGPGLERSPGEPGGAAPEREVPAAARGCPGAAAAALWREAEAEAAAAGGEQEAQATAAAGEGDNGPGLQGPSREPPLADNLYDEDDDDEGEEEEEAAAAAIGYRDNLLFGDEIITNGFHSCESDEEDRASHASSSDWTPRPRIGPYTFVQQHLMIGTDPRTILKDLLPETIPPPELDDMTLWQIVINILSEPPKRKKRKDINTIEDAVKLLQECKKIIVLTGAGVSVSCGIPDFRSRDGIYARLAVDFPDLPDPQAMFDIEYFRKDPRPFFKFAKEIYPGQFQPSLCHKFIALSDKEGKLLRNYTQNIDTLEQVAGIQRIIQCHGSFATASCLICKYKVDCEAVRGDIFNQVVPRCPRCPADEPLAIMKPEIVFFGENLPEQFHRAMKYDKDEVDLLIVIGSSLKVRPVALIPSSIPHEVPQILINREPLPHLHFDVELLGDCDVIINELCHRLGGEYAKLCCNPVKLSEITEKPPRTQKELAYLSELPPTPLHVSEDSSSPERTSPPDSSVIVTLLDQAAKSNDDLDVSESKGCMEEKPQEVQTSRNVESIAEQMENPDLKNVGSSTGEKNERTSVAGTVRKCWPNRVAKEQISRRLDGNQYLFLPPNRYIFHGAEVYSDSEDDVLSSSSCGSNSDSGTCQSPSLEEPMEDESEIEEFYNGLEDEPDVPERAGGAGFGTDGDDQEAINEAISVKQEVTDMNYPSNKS
HDAC11, sequence (Q96DB2 whole entry, species assumed): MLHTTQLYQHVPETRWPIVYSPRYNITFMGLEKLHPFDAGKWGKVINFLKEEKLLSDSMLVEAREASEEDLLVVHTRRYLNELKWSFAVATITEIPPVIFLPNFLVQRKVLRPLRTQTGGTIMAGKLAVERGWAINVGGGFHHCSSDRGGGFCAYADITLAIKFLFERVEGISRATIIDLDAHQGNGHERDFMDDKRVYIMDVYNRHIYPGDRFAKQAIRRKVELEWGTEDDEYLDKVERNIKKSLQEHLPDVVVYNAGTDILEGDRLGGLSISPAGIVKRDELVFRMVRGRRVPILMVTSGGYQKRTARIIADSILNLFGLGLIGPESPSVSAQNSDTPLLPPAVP
HDAC3, sequence (O15379 whole entry, species assumed): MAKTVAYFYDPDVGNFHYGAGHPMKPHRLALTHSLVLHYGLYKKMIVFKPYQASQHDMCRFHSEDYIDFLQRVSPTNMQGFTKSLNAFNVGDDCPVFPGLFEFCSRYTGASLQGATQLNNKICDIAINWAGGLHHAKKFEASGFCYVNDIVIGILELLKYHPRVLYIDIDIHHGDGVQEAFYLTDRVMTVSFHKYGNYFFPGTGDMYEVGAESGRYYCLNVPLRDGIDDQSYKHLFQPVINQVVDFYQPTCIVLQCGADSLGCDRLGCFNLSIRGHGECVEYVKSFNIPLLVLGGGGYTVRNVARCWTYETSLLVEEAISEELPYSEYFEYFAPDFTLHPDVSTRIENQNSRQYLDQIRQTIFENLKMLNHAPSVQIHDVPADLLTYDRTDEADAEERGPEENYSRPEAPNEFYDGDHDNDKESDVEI
HDAC3, sequence (Q9Y618 395-489 partner limits assumed, species assumed): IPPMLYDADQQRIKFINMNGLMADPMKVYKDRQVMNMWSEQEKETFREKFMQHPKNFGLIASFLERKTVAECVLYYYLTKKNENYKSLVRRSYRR

Work on Br.CN(C)C(SCCCCCCn1cnc2c(-c3cc(Br)c(Br)[nH]3)nccc21)=[N+](C)C.[Cl-] [Compound 8a] yielded an IC50 (HDAC3) of 112 ± 2.05 µM, an IC50 (PANC-1 cells) of 9.28 µM and an IC50 (SIRT1) of 80.5 ± 1.91 µM. For the same compound, the IC50 (HDAC11) was > 200 µM, the “acetylation levels of H3K9” value [1] was “significantly increased” and the IC50 (BXPC-3 cells) was 7.56 µM.

Reference: article PMC10403574, “Discovery of a pyrrole-pyridinimidazole derivative as novel SIRT6 inhibitor for sensitizing pancreatic cancer to gemcitabine” (Cell Death & Disease, 2023)
